Patent US8664217B2, “Benzodiazepine compound and pharmaceutical composition” (Otsuka Pharmaceutical Co., Ltd., priority 2008, dated 2014)
Structures can show the parent of a compound that is named as a salt.

Molecular target: T1, human GIRK1/4 channels (Homo sapiens, UniProt P48544+P48549)
T1 construct: Full-length human GIRK1 cDNA was cloned from HuH cell- and HeLa cell-derived cDNA libraries; Full-length GIRK4 cDNA was amplified from a human heart cDNA library; expressed in transfected cells; host or cells: FLP-IN-CHO cells (Invitrogen)
T1 sequence (P48549 1-501): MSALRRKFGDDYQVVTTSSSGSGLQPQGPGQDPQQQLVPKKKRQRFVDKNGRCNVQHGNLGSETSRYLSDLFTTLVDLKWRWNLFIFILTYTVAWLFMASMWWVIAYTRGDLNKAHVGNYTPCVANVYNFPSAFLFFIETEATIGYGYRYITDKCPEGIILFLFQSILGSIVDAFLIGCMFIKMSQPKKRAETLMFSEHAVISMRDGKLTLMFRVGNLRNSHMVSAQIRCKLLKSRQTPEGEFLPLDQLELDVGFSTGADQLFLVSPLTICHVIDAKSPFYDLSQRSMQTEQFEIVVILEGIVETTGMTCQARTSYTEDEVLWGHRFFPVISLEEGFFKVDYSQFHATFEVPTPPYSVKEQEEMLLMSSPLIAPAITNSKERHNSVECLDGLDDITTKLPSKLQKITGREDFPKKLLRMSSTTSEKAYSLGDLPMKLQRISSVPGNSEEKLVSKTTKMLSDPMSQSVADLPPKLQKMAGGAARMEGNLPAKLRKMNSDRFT
T1 sequence (P48544 1-419): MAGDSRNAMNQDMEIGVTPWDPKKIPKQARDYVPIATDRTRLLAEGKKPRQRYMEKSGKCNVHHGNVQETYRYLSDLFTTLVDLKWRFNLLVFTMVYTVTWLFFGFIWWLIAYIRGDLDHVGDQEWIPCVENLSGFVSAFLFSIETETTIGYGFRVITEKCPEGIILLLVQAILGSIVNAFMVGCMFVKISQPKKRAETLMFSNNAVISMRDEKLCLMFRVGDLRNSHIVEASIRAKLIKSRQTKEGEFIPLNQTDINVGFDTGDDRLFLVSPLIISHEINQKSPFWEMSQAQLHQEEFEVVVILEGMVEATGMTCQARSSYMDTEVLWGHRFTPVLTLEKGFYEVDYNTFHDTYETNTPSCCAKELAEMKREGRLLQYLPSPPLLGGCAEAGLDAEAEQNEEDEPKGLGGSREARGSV
Assay: Measurement of human GIRK1/4 channel current by whole-cell patch clamp method (human GIRK1/4-expressing CHO cell line)
Format: cell-based
Conditions: whole-cell patch clamp, human GIRK1/4-expressing CHO cells; step end current at −120 mV; test compound 0.1, 1, 10 μM; read-out: GIRK¼ IC50
Experimental: (2) Production of CHO Cell Line Expressing Human GIRK1/4
CHO cell lines stably expressing human GIRK1/4 channels were prepared in the following manner.
Full-length human GIRK1 cDNA was cloned from HuH cell- and HeLa cell-derived cDNA libraries. Full-length GIRK4 cDNA was amplified from a human heart cDNA library (produced by Clontech Laboratories, Inc.) by PCR using synthetic primers shown in Table 1, and cloned into the Eco-RI restriction enzyme site of pCR-Blunt (produced by Invitrogen Corporation) or into the HincII site of pUC118 (produced by Takara Bio, Inc.).
The obtained human GIRK1 and GIRK4 cDNA sequences correspond to known sequences (NCBI database: GIRK1 (NM_002239) and GIRK4 (NM_000890) respectively). The obtained GIRK1 and GIRK4 cDNA sequences were cloned into the Eco-RI restriction enzyme site of pCR-Blunt (available from Invitrogen Corporation) or into the HincII site of pUC118 (available from Takara Bio, Inc.). A GIRK4 expression vector was constructed by insertion into the BamHI-XhoI site of pcDNA5/FRT. A GIRK1 expression vector was constructed by insertion into the KpnI-XhoI site of pcDNA3.1(+) or pCAG_neo. FLP-IN-CHO cells (produced by Invitrogen Corporation) were transfected with human GIRK1 and GIRK4 expression vectors by using Lipofectamine 2000 (produced by Invitrogen Corporation) according to the protocol enclosed with the reagent or using an electronic induction method (“Nucleofector Kit-T”, produced by Amaxa). First, the cells transfected with the GIRK4 expression vector were cultured in a 10% serum-containing F12 medium (produced by Sigma) supplemented with 600 μg/ml of hygromycin in an incubator with 5% carbon dioxide at 37° C. Then the cells expressing GIRK4 were transfected with the GIRK1 expression vector and were cultured in 10% serum-containing F12 medium supplemented with 350 μg/ml of G418 and 600 μg/ml of hygromycin in an incubator with 5% carbon dioxide at 37° C. to select GIRK1/4 expressing cell lines. Cell populations whose growth was observed after about 2 weeks were isolated using cloning rings, and the obtained single colonies were proliferated. RNA was extracted from single colonies, and single-stranded cDNA was synthesized by a cDNA synthesis kit (produced by Invitrogen Corporation), and the amount of expression was quantified at the mRNA level by real-time PCR (Applied Biosystems, Ltd.). Finally, the expressed current was analyzed by patch clamp method described below. The cell lines expressing a current of 500 pA or more per cell were selected as channel-expressing cell lines for activity measurement by patch clamping method.
(4) Measurement of Ion Channel Current by Patch Clamp Method (Human GIRK1/4-Expressing CHO-K1 Cell Line)
An experiment was carried out using a patch clamp setup at room temperature (20 to 26° C.). A perfusion chamber having a diameter of 20 mm (flow rate: about 5 ml/min) was mounted on the stage of a phase-contrast inverted microscope (produced by Nikon Corporation) placed on a vibration isolation table. A poly-L-lysine (produced by Sigma)-coated coverslip (diameter: 15 mm, produced by Matsunami Glass Ind., Ltd.) on which human GIRK1/4-expressing cells were cultured was placed in the perfusion chamber.
Hyperpolarizing stimulation pulses were applied and ionic current was recorded using a patch clamp amplifier (EPC-7 or EPC-7 PLUS, manufactured by HEKA) and a personal computer (manufactured by IBM Corp.) in which software for data acquisition and analysis of ion channel current (PULSE 8.77, manufactured by HEKA) was installed. The current was measured in the whole-cell configuration of the patch-clamp technique. The tip (resistance: 2 to 4 MΩ) of a borosilicate glass pipette (produced by Sutter Instrument Co.) was gently placed on the cell membrane by using a three-dimensional mechanical micromanipulator (produced by Shoshin EM Corporation). […] Subsequently, stronger suction was applied to break the cell membrane. […]

Structure (SMILES) | IC50
CCN1C(=O)C(C)(C)C(=O)N(C)c2cc(OCCCN(CCn3ccc4oc(C)cc4c3=O)Cc3ccncc3)ccc21 [Example 464, 1-ethyl-3,3,5-trimethyl-7-(3-{[2-(2-methyl-4-oxo-4H-furo[3,2-c]pyridin-5-yl)ethyl]pyridin-4-ylmethylamino}propoxy)-1,5-dihydrobenzo[b][1,4]diazepine-2,4-dione dihydrochloride] | 3.2 µM
CCN1C(=O)C(C)(C)C(=O)N(C)c2cc(OCCCN(CCn3ccc4occc4c3=O)Cc3cccnc3)ccc21 [Example 551, 1-ethyl-3,3,5-trimethyl-7-(3-{[2-(4-oxo-4H-furo[3,2-c]pyridin-5-yl)ethyl]pyridin-3-ylmethylamino}-propoxy)-1,5-dihydrobenzo[b][1,4]diazepine-2,4-dione] | 5.2 µM
CCN1C(=O)C(C)(C)C(=O)N(C)c2cc(OCCCN(CCn3ccc4sccc4c3=O)Cc3cccnc3)ccc21 [Example 568, 1-ethyl-3,3,5-trimethyl-7-(3-{[2-(4-oxo-4H-thieno[3,2-c]pyridin-5-yl)ethyl]pyridin-3-ylmethylamino}-propoxy)-1,5-dihydrobenzo[b][1,4]diazepine-2,4-dione] | 0.05 µM
CCN1C(=O)C(C)(C)C(=O)N(C)c2cc(OCCCN(CCn3ccc4oc(C)cc4c3=O)Cc3cnccc3C)ccc21 [Example 573, 1-ethyl-3,3,5-trimethyl-7-{3-[[2-(2-methyl-4-oxo-4H-furo[3,2-c]pyridin-5-yl)ethyl]-(4-methylpyridin-3-ylmethyl)amino]propoxy}-1,5-dihydrobenzo[b][1,4]diazepine-2,4-dione] | 1.5 µM
CCN1C(=O)C(C)(C)C(=O)N(C)c2cc(OCCCN(CCn3ccc4occc4c3=O)Cc3cccnc3C)ccc21 [Example 575, 1-ethyl-3,3,5-trimethyl-7-(3-{(2-methylpyridin-3-ylmethyl)-[2-(4-oxo-4H-furo[3,2-c]pyridin-5-yl)ethyl]-amino}propoxy)-1,5-dihydrobenzo[b][1,4]diazepine-2,4-dione] | 0.5 µM
CCN1C(=O)C(C)(C)C(=O)N(C)c2cc(OCCCN(CCn3ccc4occc4c3=O)Cc3cnccc3C)ccc21 [Example 590, 1-ethyl-3,3,5-trimethyl-7-(3-{(4-methylpyridin-3-ylmethyl)-[2-(4-oxo-4H-furo[3,2-c]pyridin-5-yl)ethyl]-amino}propoxy)-1,5-dihydrobenzo[b][1,4]diazepine-2,4-dione] | 2.4 µM
CCN1C(=O)C(C)(C)C(=O)N(C)c2cc(OCCCN(CCn3ccc4sccc4c3=O)Cc3cccnc3C)ccc21 [Example 595, 1-ethyl-3,3,5-trimethyl-7-(3-{(2-methylpyridin-3-ylmethyl)-[2-(4-oxo-4H-thieno[3,2-c]pyridin-5-yl)ethyl]-amino}propoxy)-1,5-dihydrobenzo[b][1,4]diazepine-2,4-dione] | 0.79 µM
CCCc1ncccc1CN(CCCOc1ccc2c(c1)N(C)C(=O)C(C)(C)C(=O)N2CC)CCn1ccc2oc(C)cc2c1=O [Example 611, 1-ethyl-3,3,5-trimethyl-7-{3-[[2-(2-methyl-4-oxo-4H-furo[3,2-c]pyridin-5-yl)ethyl]-(2-propylpyridin-3-ylmethyl)amino]propoxy}-1,5-dihydrobenzo[b][1,4]diazepine-2,4-dione dihydrochloride] | 0.37 µM
CCN1C(=O)C(C)(C)C(=O)N(C)c2cc(OCCCN(CCc3cccnc3)S(=O)(=O)c3ccccc3)ccc21 [Example 628, N-[3-(1-ethyl-3,3,5-trimethyl-2,4-dioxo-2,3,4,5-tetrahydro-1H-benzo[b][1,4]diazepin-7-yloxy)propyl]-N-(2-pyridin-3-ylethyl)benzenesulfonamide hydrochloride] | 2.5 µM
CCN1C(=O)C(C)(C)C(=O)N(C)c2cc(OCCCN(CCn3ccc4occc4c3=O)Cc3ccc(C)nc3C)ccc21 [Example 629, 7-(3-{(2,6-dimethylpyridin-3-ylmethyl)-[2-(4-oxo-4H-furo[3,2-c]pyridin-5-yl)ethyl]amino}propoxy)-1-ethyl-3,3,5-trimethyl-1,5-dihydrobenzo[b][1,4]diazepine-2,4-dione dihydrochloride] | 0.17 µM
CCN1C(=O)C(C)(C)C(=O)N(C)c2cc(OCCCN(CCc3cccnc3)C(=O)c3ccccc3)ccc21 [Example 633, N-[3-(1-ethyl-3,3,5-trimethyl-2,4-dioxo-2,3,4,5-tetrahydro-1H-benzo[b][1,4]diazepin-7-yloxy)propyl]-N-(2-pyridin-3-ylethyl)benzamide hydrochloride] | 8.4 µM
CCN1C(=O)C(C)(C)C(=O)N(C)c2cc(OCCCN(CCn3ccc4ccccc4c3=O)S(=O)(=O)c3ccccc3)ccc21 [Example 634, N-[3-(1-ethyl-3,3,5-trimethyl-2,4-dioxo-2,3,4,5-tetrahydro-1H-benzo[b][1,4]diazepin-7-yloxy)propyl]-N-[2-(1-oxo-1H-isoquinolin-2-yl)ethyl]benzenesulfonamide] | 0.49 µM
